Nine molecules from US4719207A, “CNS active substituted azetidinone compounds” (Yamanouchi Pharmaceutical Co., Ltd., priority 1984, dated 1988) can be followed below.

In general, LD50 refers to the dose expected to kill half of the subjects tested.

One data set deals with mice. The experiment in a line: Reversal effect against pentobarbital-induced hypothermia (Experiment 1). It is filed as in vivo. Particulars: i.v., 10 minutes after pentobarbital (55 mg/kg i.p.), rectal temperature 30 minutes after test compound, dose required to reduce pentobarbital-hypothermia by 1.5° C.; for ED (1.5 degC): Mus musculus, iv, 0.5 h, read-out: Reversal effect against pentobarbitalhypothermia ED1.5° C. The method, then:
The following experiments show the action on low body temperature induced by pentobarbital (Experiment 1), and on acute toxicity for typical compounds of the present invention.
Pentobarbital-induced hypothermia
Nine male mice weighing 18 to 22 g were used for each dosage of the test compounds. Mice were given intravenously various doses of test compounds 10 minutes after pentobarbital (55 mg/kg i.p.). Rectal temperature was measured before pentobarbital dosing and immediately before and 30 minutes after the test compounds. Effects of test compounds were evaluated as ED1.5° C., the dose required to reduce by 1.5° C. pentobarbital-hypothermia of control group of mice which received only pentobarbital and saline. The results are shown in Talbe 1.
(A) Reversal effect against pentobarbitalhypothermia ED1.5° C

A further data set can be described thus: Acute toxicity (i.v.). On the set-up: species or system mice. As to conditions: mouse, in vivo, iv. The method, then: That is, LD50 (i.v.) of the compound of the present invention was higher than 800 mg/kg.

Structures are written as SMILES. Read-outs that look alike come from different tables or passages of the source.

With `NC(=O)[C@@H]1CCCN1C(=O)[C@H](Cc1c[nH]cn1)NC(=O)[C@H]1NC(=O)[C@@H]1Cc1ccccc1` [N^α -[(2S,3R)-3-benzyl-4-oxo-2-azetidinylcarbonyl]-L-histidyl-L-prolinamide], in the data set on mice, the ED (1.5 degC) turned out to be 0.04 mg/kg.

With `CC1(C)C(=O)N[C@@H]1C(=O)N[C@@H](Cc1c[nH]cn1)C(=O)N1CCC[C@H]1C(N)=O` [N^α -[(S)-3,3-dimethyl-4-oxo-2-azetidinylcarbonyl]-L-histidyl-L-prolinamide], the LD50 at 24 h in the data set “Acute toxicity (i.v.)” is above 800 mg/kg.

On to `C[C@H]1C(=O)N[C@@H]1C(=O)N[C@@H](Cc1cn(C)cn1)C(=O)N1CCC[C@H]1C(N)=O` [.tau.-Methyl-N^α --[(2S,3R)--3-methyl-4-oxo-2-azetidinyl-carbonyl]-L-histidyl-L-prolinamide], for which the ED (1.5 degC) in the data set with mice amounted to 0.02 mg/kg.

Consider `CS[C@H]1C(=O)N[C@@H]1C(=O)N[C@@H](Cc1c[nH]cn1)C(=O)N1CCC[C@H]1C(N)=O` [N^α -[(2R,3R)-3-methylthio-4-oxo-2-azetidinylcarbonyl]-L-histidyl-L-prolinamide], for which the ED (1.5 degC) in the data set with mice came out at 0.08 mg/kg.

Consider `NC(=O)[C@@H]1CCCN1C(=O)[C@H](Cc1c[nH]cn1)NC(=O)[C@@H]1CC(=O)N1CO` [N^α -[(S)-1-hydroxymethyl-4-oxo-2-azetidinylcarbonyl]-L-histidyl-L-prolinamide], for which the ED (1.5 degC) in the data set with mice was 0.04 mg/kg.

With `NC(=O)[C@@H]1CCCN1C(=O)[C@H](Cc1c[nH]cn1)NC(=O)[C@@H]1CCC(=O)N1` [TRH, L-pyroglutamyl-L-histidyl-L-prolinamide, reference compound], in the data set with mice, the “Reversal effect against pentobarbitalhypothermia ED1.5° C” value was 0.1 mg/kg. Moreover, the LD50 at 24 h in “Acute toxicity (i.v.)” (male mice, observed for 24 hours, read-out: LD50 (i.v.)) stood at 751 mg/kg.

As for `CC(O)[C@H]1C(=O)N[C@@H]1C(=O)N[C@@H](Cc1c[nH]cn1)C(=O)N1CCC[C@H]1C(N)=O` (stereo partly drawn) [N^α -[(2S,3S)-3-(1-hydroxyethyl)-4-oxo-2-azetidinylcarbonyl]-L-histidyl-L-prolinamide], in the data set on mice, the ED (1.5 degC) turned out to be 0.07 mg/kg.

Consider `Cn1cnc(C[C@H](NC(=O)[C@H]2NC(=O)C2(C)C)C(=O)N2CCC[C@H]2C(N)=O)c1` [N^α -[(S)-3,3-dimethyl-4-oxo-2-azetidinylcarbonyl]-.tau.-methyl-L-histidyl-L-prolinamide], for which the ED (1.5 degC) in the data set on mice came to 0.01 mg/kg.

Turning to `[N-]=[N+]=N[C@H]1C(=O)N[C@@H]1C(=O)N[C@@H](Cc1c[nH]cn1)C(=O)N1CCC[C@H]1C(N)=O` [N^α -[(2S,3R)-3-azido-4-oxo-2-azetidinylcarbonyl]-L-histidyl-L-prolinamide], the ED (1.5 degC) in the data set with mice was below 0.01 mg/kg.
